The record followed here is patent publication US10214492B2, “Heterocyclic inhibitors of MCT4” (Vettore, LLC, priority 2016, dated 2019).

Where two headings read alike, the source gives them in different places.

The target of one assay is MCT4 (Homo sapiens (Human), UniProt O15427). Description: Assay 3: MCT4-mediated lactate transport in MDA-MB-231 breast cancer cells. It counts as cell-based. An outline of the steps:
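MDA-MB-231 cells loaded with BCECF-AM, 5 min at 37° C, washed and resuspended in Tyrode's Solution, pH 7.4. MCT4 lactate/proton symport followed as the intracellular pH change reported by BCECF fluorescence.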

Another assay addresses MCT1 (Homo sapiens (Human), UniProt P53985). Description: Assay 4: MCT1-mediated lactate transport in BT20 breast cancer cells. Format: cell-based. Particulars: Table 27. An outline of the steps:
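BT20 cells loaded with BCECF-AM (30 mM DMSO stock) for 5 min at 37° C, washed and resuspended in Tyrode's Solution pH 7.4. Lactate uptake tracked via BCECF intracellular pH signal after adding 10 mM L-lactate.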

The mark [1] stands for this setting: MDA-MB-231 cells, lactate transport.

MCT1, sequence (P53985 whole entry): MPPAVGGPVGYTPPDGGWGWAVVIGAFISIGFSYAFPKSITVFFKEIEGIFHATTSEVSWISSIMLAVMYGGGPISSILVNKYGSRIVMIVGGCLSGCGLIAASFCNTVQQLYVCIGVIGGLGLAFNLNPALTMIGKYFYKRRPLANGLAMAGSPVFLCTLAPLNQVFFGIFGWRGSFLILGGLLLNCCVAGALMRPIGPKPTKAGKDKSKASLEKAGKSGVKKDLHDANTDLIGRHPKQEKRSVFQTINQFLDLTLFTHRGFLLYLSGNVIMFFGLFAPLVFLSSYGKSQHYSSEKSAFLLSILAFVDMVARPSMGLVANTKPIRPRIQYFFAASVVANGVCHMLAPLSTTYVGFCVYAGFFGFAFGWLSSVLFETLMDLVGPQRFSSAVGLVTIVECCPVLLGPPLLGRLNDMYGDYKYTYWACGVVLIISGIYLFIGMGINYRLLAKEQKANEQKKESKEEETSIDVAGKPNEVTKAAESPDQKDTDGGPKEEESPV
MCT1, sequence (P35613 140-385 partner): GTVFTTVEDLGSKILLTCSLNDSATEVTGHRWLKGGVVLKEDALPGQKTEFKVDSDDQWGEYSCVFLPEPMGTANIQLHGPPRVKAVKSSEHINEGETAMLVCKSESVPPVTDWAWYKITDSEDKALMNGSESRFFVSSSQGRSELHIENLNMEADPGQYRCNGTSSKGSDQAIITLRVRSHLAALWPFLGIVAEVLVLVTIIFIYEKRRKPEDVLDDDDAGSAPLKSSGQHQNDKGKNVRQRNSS
MCT4, sequence (O15427 whole entry, looked up): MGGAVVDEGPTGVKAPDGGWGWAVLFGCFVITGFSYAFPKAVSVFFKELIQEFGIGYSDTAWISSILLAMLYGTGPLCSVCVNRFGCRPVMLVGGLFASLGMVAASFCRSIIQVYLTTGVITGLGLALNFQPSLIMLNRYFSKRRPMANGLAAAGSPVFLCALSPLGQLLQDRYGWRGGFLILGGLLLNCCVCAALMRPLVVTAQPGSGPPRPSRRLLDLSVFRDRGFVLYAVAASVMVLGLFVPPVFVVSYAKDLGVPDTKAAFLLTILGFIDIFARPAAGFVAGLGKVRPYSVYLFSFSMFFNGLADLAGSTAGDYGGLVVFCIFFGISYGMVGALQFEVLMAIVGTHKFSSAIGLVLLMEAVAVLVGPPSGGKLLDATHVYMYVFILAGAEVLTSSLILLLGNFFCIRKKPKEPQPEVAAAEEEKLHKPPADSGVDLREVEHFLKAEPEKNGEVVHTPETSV
MCT4, sequence (P35613 whole entry partner, looked up): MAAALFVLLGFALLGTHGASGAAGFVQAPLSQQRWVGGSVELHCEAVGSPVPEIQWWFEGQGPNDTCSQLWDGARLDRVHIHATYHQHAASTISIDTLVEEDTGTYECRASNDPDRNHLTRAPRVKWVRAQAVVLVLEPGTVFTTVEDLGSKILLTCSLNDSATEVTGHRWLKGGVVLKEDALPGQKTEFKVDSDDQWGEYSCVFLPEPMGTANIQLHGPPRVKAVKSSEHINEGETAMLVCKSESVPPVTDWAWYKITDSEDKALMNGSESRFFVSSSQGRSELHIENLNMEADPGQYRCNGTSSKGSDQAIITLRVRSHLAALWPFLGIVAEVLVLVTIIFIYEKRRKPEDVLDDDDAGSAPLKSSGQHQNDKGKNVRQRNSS

In general, IC50 refers to the concentration that gives 50% inhibition. As for `Cn1ncc2ccc(-c3cc(COC(C)(C)C(=O)O)nn3-c3ccccc3N3CCCC3)cc21` [Example 230, 2-Methyl-2-([5-(1-methyl-1H-indazol-6-yl)-1-[2-(pyrrolidin-1-yl)phenyl]-1H-pyrazol-3-yl]methoxy]propanoic acid], the figures for the IC50 against MCT4 (setting [1]) and against MCT1 were 8.1 nM and 92000 nM, respectively.

On to `COc1cc(OC)cc(-c2cc(COC(C)(C)C(=O)O)nn2-c2ccccc2N2CCCC2)c1` [Example 231, 2-([5-(3,5-Dimethoxyphenyl)-1-[2-(pyrrolidin-1-yl)phenyl]-1H-pyrazol-3-yl]-methoxy)-2-methylpropanoic acid], for which the IC50 at MCT4 (setting [1]) turned out to be 4.5 nM; at MCT1, 63000 nM.

In the case of `CC(C)(OCc1cc(-c2cccc(OC3CC3)c2)n(-c2ccccc2N2CC[C@H](O)C2)n1)C(=O)O` [Example 233, 2-([5-(3-Cyclopropoxyphenyl)-1-[2-[(3S)-3-hydroxypyrrolidin-1-yl]phenyl]-1H-pyrazol-3-yl]methoxy)-2-methylpropanoic acid], the IC50 was 700 nM against MCT4 (setting [1]) and greater than 100000 nM against MCT1.

Take `CC(C)(OCc1cc(-c2cccc(OC3CC3)c2)n(-c2ccccc2N2CCOCC2)n1)C(=O)O` [Example 234, 2-([5-(3-Cyclopropoxyphenyl)-1-[2-(morpholin-4-yl)phenyl]-1H-pyrazol-3-yl]-methoxy)-2-methylpropanoic acid]: the IC50 on MCT4 (setting [1]) was 960 nM; against MCT1, 70000 nM.

As to `CC(C)(OCc1cc(-c2cccc(OC3CC3)c2)n(-c2ccccc2N2CCCC2=O)n1)C(=O)O` [Example 235, 2-([5-(3-Cyclopropoxyphenyl)-1-(2-(2-oxopyrrolidin-1-yl)phenyl]-1H-pyrazol-3-yl]methoxy)-2-methylpropanoic acid], the IC50 is greater than 30000 nM against MCT4 (setting [1]) and greater than 100000 nM at MCT1.

For the compound `CC(C)(OCc1cc(-c2cccc(OC3CC3)c2)n(-c2ccccc2-n2cccn2)n1)C(=O)O` [Example 236, 2-([5-(3-Cyclopropoxyphenyl)-1-[2-(1H-pyrazol-1-yl)phenyl]-1H-pyrazol-3-yl]-methoxy)-2-methylpropanoic acid], the IC50 was 170 nM against MCT4 (setting [1]) and greater than 100000 nM at MCT1.

On to `CC(C)(OCc1cc(-c2cccc(OC3CC3)c2)n(-c2ccccc2N2CC[C@@H](O)C2)n1)C(=O)O` [Example 237, 2-([5-(3-Cyclopropoxyphenyl)-1-[2-[(3R)-3-hydroxypyrrolidin-1-yl]phenyl]-1H-pyrazol-3-yl]methoxy)-2-methylpropanoic acid], for which the IC50 on MCT4 (setting [1]) was 160 nM; on MCT1, greater than 100000 nM.

Regarding `CC(C)(OCc1cc(-c2cccc(OC3CCC3)c2)n(Cc2ccccc2N2CCCC2)n1)C(=O)O` [Example 238, 2-([5-(3-Cyclobutoxyphenyl)-1-[[2-(pyrrolidin-1-yl)phenyl]methyl]-1H-pyrazol-3-yl]methoxy)-2-methylpropanoic acid], the IC50 turned out to be 3.7 nM on MCT4 (setting [1]) and 21000 nM at MCT1.

For the compound `CC(C)(OCc1cc(-c2cccc(OC3CC3)c2)n(-c2ccccc2C#N)n1)C(=O)O` [Example 239, 2-([1-(2-Cyanophenyl)-5-(3-cyclopropoxy-phenyl)-1H-pyrazol-3-yl)methoxy)-2-methylpropanoic acid], the IC50 is 150 nM against MCT4 and greater than 100000 nM against MCT1.

Regarding `COc1cc(OC)cc(-c2cc(COC(C)(C)C(=O)O)nn2-c2ccccc2N(C)C)c1` [Example 245, 2-([5-(3,5-Dimethoxyphenyl)-1-[2-(dimethylamino)phenyl)-1H-pyrazol-3-yl]-methoxy)-2-methylpropanoic acid], the results for the IC50 against MCT4 (setting [1]) and at MCT1 were 7.6 nM and 77000 nM, respectively.

On to `CC(C)COc1cccc(-c2cc(COC(C)(C)C(=O)O)nn2Cc2ccccn2)c1` [Example 247, 2-Methyl-2-([5-[3-(2-methylpropoxy)-phenyl]-1-([pyridin-2-yl]methyl)-1H-pyrazol-3-yl]methoxy)propanoic acid], for which the IC50 against MCT4 (setting [1]) is 23 nM; against MCT1, greater than 100000 nM.
